The values that follow come from US20090208517A1, “Preparation Of Antigen-Presenting Human Gamma-Delta T Cells And Use In Immunotherapy” (priority 2004, published 2009).

The subject of this experiment is naïve CD4^+ αβ T cells. Format: cell-based, human.

With phytohemagglutinin [PHA], the “Vβ2^+ (%) responder cells” value was determined as 9% and the “selective expansion of Vβ2^+ T cells (in words)” value was “does not result in selective expansion of Vβ2^+ T cells”.
